The values that follow come from ChEMBL document CHEMBL1268821, “Inhibitors of the tyrosine kinase EphB4. Part 3: identification of non-benzodioxole-based kinase inhibitors” (Bioorg Med Chem Lett, 2010).

Data set [1] is described as follows: Bioavailability in Han Wistar rat at […], iv and 5 mg/kg, po. The data set is classed as ADME, organism-based. The note with it: in vivo.
Data set [2] in a line: Plasma concentration in nude mouse at 100 mg/kg, po measured at 1 hr. More on the design: dose 100 mg/kg, route oral. The data set is classed as ADME, organism-based.
Data set [3] can be described thus: AUC (0 to 24 hrs) in nude mouse at 100 mg/kg, po. To be noted: plasma. It counts as ADME, organism-based. More on the design: time < 24 hr, dose 100 mg/kg, route oral.
Data set [4] can be described thus: Plasma concentration in nude mouse at 100 mg/kg, po measured at 24 hrs. It counts as ADME, organism-based. More on the design: dose 100 mg/kg, route oral.
A short description of data set [5]: Plasma concentration in nude mouse at 100 mg/kg, po measured at 4 hrs. It counts as ADME, organism-based. More on the design: dose 100 mg/kg, route oral.
The subject of a further data set is Rattus norvegicus. Briefly: Hepatic blood flow in Han Wistar rat at […], iv and 5 mg/kg, po. The data set is classed as ADME, organism-based, Liver. To be noted: in vivo.
A short description of data set [6]: Volume of distribution at steady state in Han Wistar rat at […], iv and 5 mg/kg, po. It counts as ADME, organism-based. The note with it: in vivo, read-out: Vdss.

In general, bioavailability refers to dose-corrected exposure relative to a reference, in per cent. The low end stands for poor availability, the high end for good availability. The AUC(0-t) is exposure summed from dosing to a finite time, without extrapolation to infinity. The low end stands for less exposure, the high end for more exposure. As for `CN(c1ccnc(Nc2cc(N3CCOCC3)cc(N3CCOCC3)c2)n1)c1cccc2[nH]ncc12`, the bioavailability in data set [1] was 65%. This compound yielded a concentration at 1 h in data set [2] of 11000 nM. For the same compound, in data set [3], the AUC(0-t) at 24 h worked out at 48.7 µM·h. This compound also came in with a concentration at 24 h in data set [4] of 1800 nM. This compound had a concentration at 4 h in data set [5] of 1900 nM. Besides, in the data set on Rattus norvegicus, the QH is given as 19%. The Vd in data set [6] was determined as 0.8 L/kg.
